± gives the expanded uncertainty stated by the source.
Key:
[1] = refractive index (Na D-line) (dimensionless); xn = mol fraction of the nth substance listed; details: 101 kPa, Liquid, Standard Abbe refractometry
[2] = xn = mol fraction of the nth substance listed; details: 101 kPa, Liquid; for viscosity: Capillary tube (Ostwald / Ubbelohde) method; for mass density: Vibrating tube method
[3] = refractive index (Na D-line) (dimensionless); details: 101.33 kPa, Liquid, Standard Abbe refractometry
[4] = 101 kPa, Liquid; for viscosity: Capillary tube (Ostwald / Ubbelohde) method; for mass density: Vibrating tube method

`CCC(C)(C)O` [2-methylbutan-2-ol] + CCCN showed a refractive index ([1]; 288.15 K, x1 = 1) of 1.4062 ± 0.0004, a refractive index ([1]; 298.15 K, x1 = 1) of 1.4015 ± 0.0004 and a refractive index ([1]; 308.15 K, x1 = 1) of 1.3968 ± 0.0004. The viscosity ([2]; 288.15 K, x1 = 1) was 5.867 ± 0.043 mPa·s, the mass density ([2]; 288.15 K, x1 = 1) was 814.01 ± 0.24 kg/m3 and the viscosity ([2]; 298.15 K, x1 = 1) was 3.478 ± 0.027 mPa·s. The mass density ([2]; 298.15 K, x1 = 1) was 804.88 ± 0.24 kg/m3, the viscosity ([2]; 308.15 K, x1 = 1) was 2.504 ± 0.019 mPa·s and the mass density ([2]; 308.15 K, x1 = 1) was 795.52 ± 0.24 kg/m3.

In the case of `C1CCOC1` [tetrahydrofuran] + CCCN, the refractive index ([1]; 288.15 K, x1 = 1) is reported as 1.4086 ± 0.0004, the refractive index ([1]; 298.15 K, x1 = 1) is reported as 1.4037 ± 0.0004 and the refractive index ([1]; 308.15 K, x1 = 1) is reported as 1.3987 ± 0.0004. It also gave a viscosity ([2]; 288.15 K, x1 = 1) of 0.4991 ± 0.0043 mPa·s, a mass density ([2]; 288.15 K, x1 = 1) of 892.92 ± 0.23 kg/m3 and a viscosity ([2]; 298.15 K, x1 = 1) of 0.454 ± 0.004 mPa·s. It also gave a mass density ([2]; 298.15 K, x1 = 1) of 882.03 ± 0.24 kg/m3, a viscosity ([2]; 308.15 K, x1 = 1) of 0.4172 ± 0.0037 mPa·s and a mass density ([2]; 308.15 K, x1 = 1) of 871.01 ± 0.24 kg/m3.

Compound `C1CCOC1` [tetrahydrofuran] has a refractive index ([3]; 288.15 K) of 1.4086 ± 0.0004, a refractive index ([3]; 298.15 K) of 1.4037 ± 0.0004 and a refractive index ([3]; 308.15 K) of 1.3987 ± 0.0004. The viscosity ([4]; 288.15 K) was 0.4991 ± 0.0043 mPa·s, the mass density ([4]; 288.15 K) was 892.92 ± 0.23 kg/m3 and the viscosity ([4]; 298.15 K) was 0.454 ± 0.004 mPa·s. For the same compound, the mass density ([4]; 298.15 K) was 882.03 ± 0.24 kg/m3, the viscosity ([4]; 308.15 K) was 0.4172 ± 0.0037 mPa·s and the mass density ([4]; 308.15 K) was 871.01 ± 0.24 kg/m3.

`C1CCOC1` [tetrahydrofuran] + CCC(C)(C)O gave a refractive index ([1]; 288.15 K, x2 = 0) of 1.4086 ± 0.0004, a refractive index ([1]; 298.15 K, x2 = 0) of 1.4037 ± 0.0004 and a refractive index ([1]; 308.15 K, x2 = 0) of 1.3987 ± 0.0004. The viscosity ([2]; 288.15 K, x2 = 0) was 0.4991 ± 0.0043 mPa·s, the mass density ([2]; 288.15 K, x2 = 0) was 892.92 ± 0.23 kg/m3 and the viscosity ([2]; 298.15 K, x2 = 0) was 0.454 ± 0.004 mPa·s. The mass density ([2]; 298.15 K, x2 = 0) was 882.03 ± 0.24 kg/m3, the viscosity ([2]; 308.15 K, x2 = 0) was 0.4172 ± 0.0037 mPa·s and the mass density ([2]; 308.15 K, x2 = 0) was 871.01 ± 0.24 kg/m3.

Compound `CCCN` [propan-1-amine] has a refractive index ([3]; 288.15 K) of 1.3899 ± 0.0004, a refractive index ([3]; 298.15 K) of 1.3844 ± 0.0004 and a refractive index ([3]; 308.15 K) of 1.3784 ± 0.0004. The viscosity ([4]; 288.15 K) was 0.3851 ± 0.0034 mPa·s, the mass density ([4]; 288.15 K) was 721.57 ± 0.25 kg/m3 and the viscosity ([4]; 298.15 K) was 0.3585 ± 0.0033 mPa·s. The mass density ([4]; 298.15 K) was 711.08 ± 0.25 kg/m3, the viscosity ([4]; 308.15 K) was 0.3222 ± 0.003 mPa·s and the mass density ([4]; 308.15 K) was 700.4 ± 0.25 kg/m3.

Work on `CCC(C)(C)O` [2-methylbutan-2-ol] yielded a refractive index ([3]; 288.15 K) of 1.4062 ± 0.0004, a refractive index ([3]; 298.15 K) of 1.4015 ± 0.0004 and a refractive index ([3]; 308.15 K) of 1.3968 ± 0.0004. The viscosity ([4]; 288.15 K) was 5.867 ± 0.043 mPa·s, the mass density ([4]; 288.15 K) was 814.01 ± 0.24 kg/m3 and the viscosity ([4]; 298.15 K) was 3.478 ± 0.027 mPa·s. For the same compound, the mass density ([4]; 298.15 K) was 804.88 ± 0.24 kg/m3, the viscosity ([4]; 308.15 K) was 2.504 ± 0.019 mPa·s and the mass density ([4]; 308.15 K) was 795.52 ± 0.24 kg/m3.
